According to PubChem BioAssay AID449764 (Southern Research Specialized Biocontainment Screening …, 2010):

Test system: Mycobacterium tuberculosis H37Rv growth inhibition, no glycerol
Experiment: Mycobacterium tuberculosis H37Rv growth inhibition, no glycerol, confirmatory dose response (AID 449764);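 note: growth read after 7 days of incubation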
Settings: for IC90: measured here: IC90 growth inhibition

Cc1ccc(Cn2c(C(CO)Nc3nc(-c4ccc(F)cc4)cs3)nc3ccccc32)cc1 (centres undefined)
IC50: 66.4 µM | IC90: 91.8 µM

CSCCC1NC(=O)N(CC(=O)N2N=C(c3ccc(Cl)cc3)CC2c2ccco2)C1=O (centres undefined)
IC50: 10.9 µM | IC90: 13.6 µM

CC(C)CS(=O)(=O)C1=NN2C(=N)/C(=C\c3ccc(OC(=O)c4ccco4)cc3)C(=O)N=C2S1
IC50: 20.9 µM | IC90: 26.5 µM

COc1ccc2c(c1)CCc1c(C(=O)Nc3c(C)n(C)n(-c4ccccc4)c3=O)noc1-2
IC50: 89.6 µM | IC90: > 100 µM

CN=c1scc(-c2ccccc2Br)n1/N=C/c1ccc[nH]1
IC50: 88.3 µM | IC90: 92.2 µM

Cc1nonc1OCCNCCNc1ccc([N+](=O)[O-])c2cccnc12
IC50: 17.7 µM | IC90: 31.4 µM

COc1ccc(CCNc2cc(-c3ccccc3)nc3ncnn23)cc1
IC50: < 0.2 µM | IC90: 27.3 µM

CN(CC(=O)Nc1ccccc1Br)C(=O)c1cccnc1Nc1cccc(C(F)(F)F)c1
IC50: 35 µM | IC90: 48.7 µM

Cc1cc(C)n(-c2nc(NCCN(C)C)c3c4c(sc3n2)CCCC4)n1
IC50: 15.6 µM | IC90: 21.4 µM

C(C#CCCCCCCCCC[n+]1ccccc1)#CCCCCCCCCC[n+]1ccccc1
IC50: 4.02 µM | IC90: 6.85 µM

C=C(C)C(=O)OCC(O)COc1ccc(C(C)(C)c2ccc(OCC(O)COC(=O)C(=C)C)cc2)cc1 (centres undefined)
IC50: 35.6 µM | IC90: 49.1 µM

CC(/C=N/n1c(C2CCCCC2)n[nH]c1=S)=C\c1ccccc1
IC50: 80.8 µM | IC90: 90.3 µM

N#CC(C#N)=c1ccc2c(c1)N1C3=C(CCCC3)CC3CCCCC31N=2 (centres undefined)
IC50: 12.5 µM | IC90: 13.5 µM

COc1ccc(C2c3[nH]c4ccccc4c3CCN2C(=O)c2cc3ncccn3n2)c(F)c1 (centres undefined)
IC90: > 100 µM

Nc1nc2ccccc2n1CCOc1ccccc1Cl
IC50: 20.3 µM | IC90: 23.1 µM

CCCCOc1ccc(C(=O)Oc2ccc(C)nc2)cc1
IC50: 54.8 µM | IC90: 78.8 µM

O=C(CSC1=Nc2ccccc2C2=NC(c3ccccc3)C(=O)N12)NC1CCCCC1 (centres undefined)
IC50: 1.03 µM | IC90: 1.73 µM

Clc1cc(Cl)cc(Nc2ncn[nH]2)c1
IC50: 64.6 µM | IC90: > 100 µM

COC(=O)c1ccc(/C=C/c2c(-c3ccsc3)oc3ccc(N4CCOCC4)cc23)cc1
IC50: 30.6 µM | IC90: 53.6 µM

Cc1nn(Cc2ccccc2Cl)c2sc(C(=O)NCCCn3ccnc3)cc12
IC50: 37.4 µM | IC90: 56 µM

CCOc1ccc(/C=N/Nc2ccc(Cl)nn2)c(O)c1
IC50: 5.87 µM | IC90: 6.71 µM

CCOC(=O)CSc1nn(-c2ccccc2)c(=S)s1
IC50: 6.12 µM | IC90: 6.9 µM

COc1ccc(-n2cc(CNCCc3cscn3)c(-c3ccccc3Cl)n2)cc1
IC50: 27.8 µM | IC90: 35.9 µM

CC(C)=N/N=C1/NC(=O)C(Cc2ccccc2)S1 (centres undefined)
IC50: 76.5 µM | IC90: 97.2 µM

OC(CN1CCN(c2ccccn2)CC1)Cn1c2ccccc2c2ccccc21 (centres undefined)
IC50: 42 µM | IC90: 55.1 µM

O=c1c(O)c(-c2cccs2)oc2ccccc12
IC50: 34.4 µM | IC90: > 100 µM

O=C(OCn1ncc(Br)c(Br)c1=O)c1ccc(F)cc1
IC50: 2.9 µM | IC90: 4.77 µM

CNc1ccccc1C(=O)OC(C)C(=O)Nc1ccc(Cl)cn1 (centres undefined)
IC50: 35.3 µM | IC90: 65.3 µM

COC(=O)C1=C(c2ccc(OCc3ccccc3)cc2)C[C@@H]2CC[C@H]1N2C(=O)NC1CCN(Cc2ccccc2)CC1
IC50: 25.3 µM | IC90: 29.1 µM

CC(C(c1ccc2c(c1)OCO2)c1c(N)n(C)c(=O)n(C)c1=O)[N+](=O)[O-] (centres undefined)
IC50: 8.17 µM | IC90: 11.8 µM
